Measurements as given in patent US4122088A, “Dicarboxyphenyl substituted bis-sulfonylimino dibenzodithiazepine tetroxides” (American Cyanamid Company, priority 1977, dated 1978).
Structures can show the parent of a compound that is named as a salt. Where two headings read alike, the source gives them in different places.

Tests used:
[1] = New England Journal of Medicine, 286, 808-812 (1972); cited from earlier work
complement system = conditions: literature reports; cited from earlier work
shunt pathway = test: Test, Code 036 (C-Shunt inhibitor): lysis of human erythrocytes in autologous serum via the shunt pathway activated by cobra venom factor; assay type: cell-based; conditions: serial dilution assay, two-fold dilutions; higher well number indicates higher activity
Description: (§1) An active inhibitor protects C2 from C1 and C4; (ii) Test, Code 035 (C3-C9 inhibitor) - This test determines the ability of the late components of human complement (C3-C9) to lyse EAC 142 in the presence of appropriate dilutions of the test compound. An active inhibitor protects EAC 142 from lysis by human C3-C9; (iii) Test, Code 036 (C-Shunt inhibitor) - In this test human erythrocytes rendered fragile are lysed in autologous serum via the shunt pathway activated by cobra venom factor in the presence of appropriate dilutions of the test compound. Inhibition of the shunt pathway results in failure of lysis; (iv) Forssman Vasculitis Test -- Here, the well known complement dependent lesion, Forssman vasculitis, is produced in guinea pigs by intradermal injection of rabbit anti-Forssman antiserum. […]

human C1 = test: Test, Code 026 (C1 inhibitor): ability of activated human C1 to destroy fluid phase human C2 in the presence of C4; assay type: biochemical; conditions: serial dilution assay, two-fold dilutions; higher well number indicates higher activity
Description: as §1

whole complement = test: Complement Level Reduction Test: whole complement in serum of dosed guinea pigs, capillary tube assay; assay type: in vivo; conditions: Cavia porcellus, ip, guinea pig, i.p., versus simultaneous controls
Description: An active inhibitor protects C2 from C1 and C4; (ii) Test, Code 035 (C3-C9 inhibitor) - This test determines the ability of the late components of human complement (C3-C9) to lyse EAC 142 in the presence of appropriate dilutions of the test compound. An active inhibitor protects EAC 142 from lysis by human C3-C9; (iii) Test, Code 036 (C-Shunt inhibitor) - In this test human erythrocytes rendered fragile are lysed in autologous serum via the shunt pathway activated by cobra venom factor in the presence of appropriate dilutions of the test compound. Inhibition of the shunt pathway results in failure of lysis; (iv) Forssman Vasculitis Test -- Here, the well known complement dependent lesion, Forssman vasculitis, is produced in guinea pigs by intradermal injection of rabbit anti-Forssman antiserum. The lesion is measured in terms of diameter, edema and hemorrhage and the extent to which a combined index of these is inhibited by prior intraperitoneal injection of the test compound at 200 mg/kg is then reported, unless otherwise stated; (v) Forssman Shock Test -- Lethal shock is produced in guinea pigs by an i.v. injection of anti-Forssman antiserum and the harmonic mean death time of treated guinea pigs is compared with that of simultaneous controls; (vi) Complement Level Reduction Test - In this test, the above dosed guinea pigs, or others, are bled for serum and the complement level is determined in undiluted serum by the capillary t3be method of U.S. Pat. No. 3,876,376 and compared to undosed control guinea pigs; and (vii) Cap 50 Test -- Here, appropriate amounts of the test compound are added to a pool of guinea pig serum in vitro, after which the undiluted serum capillary tube assay referred to above is run. The concentration of compound inhibiting 50% is reported.
With reference to Table I, guinea pigs weighing about 300 g were dosed intravenously (i.v.) or intraperitoneally (i.p.) with 200 mg/kg of the test compound dissolved in saline and adjusted to pH 7-8. […] Percent inhibition was calculated by comparison with simultaneous controls. […]

[2] = tested on: late components of human complement (C3-C9); test: Test, Code 035 (C3-C9 inhibitor): lysis of EAC 142 by late components of human complement; assay type: cell-based; set-up: key: Negative; conditions: serial dilution assay, two-fold dilutions; higher well number indicates higher activity
Description: as §1

NC[C@H]1CC[C@H](C(=O)O)CC1 [tranexamic acid]
use in the treatment of hereditary angioneurotic edema [1]: used with success

Cc1ccc(C(=O)Nc2ccc(S(=O)(=O)O)c3cc(S(=O)(=O)O)cc(S(=O)(=O)O)c23)cc1NC(=O)c1cccc(NC(=O)Nc2cccc(C(=O)Nc3cc(C(=O)Nc4ccc(S(=O)(=O)O)c5cc(S(=O)(=O)O)cc(S(=O)(=O)O)c45)ccc3C)c2)c1 [Suramin]
anticomplementary effect / inhibition of the complement system (complement system): competitive inhibitor of the complement system

heparin
anticomplementary effect / inhibition of the complement system (complement system): anticomplementary effect

Nc1ccc2cc(S(=O)(=O)O)cc(O)c2c1N=Nc1ccc(NC(=O)Nc2ccc(N=Nc3c(N)ccc4cc(S(=O)(=O)O)cc(O)c34)c(S(=O)(=O)O)c2)cc1S(=O)(=O)O [chlorazol fast pink, 3,3'-ureylenebis-[6-(2-amino-8-hydroxy-6-sulfo-1-naphthylazo)] benzenesulfonic acid, tetrasodium salt]
anticomplementary effect / inhibition of the complement system (complement system): anticomplementary effect

O=C(O)c1cc(NS(=O)(=O)c2ccc3c(c2)S(=O)(=O)N(c2cc(C(=O)O)cc(C(=O)O)c2)S(=O)(=O)c2cc(S(=O)(=O)Nc4cc(C(=O)O)cc(C(=O)O)c4)ccc2-3)cc(C(=O)O)c1 [5,5'-{[6-(3,5-Dicarboxyphenyl)dibenzo[d,f][1,3,2]-dithiazepine-3,9-diyl]bis(sulfonylimino)}diisophthalic acid hexasodium salt S,S,S',S'-tetroxide]
Shunt Inhibition 036* Wells (shunt pathway): +3 Wells | C1 026* Wells (human C1): +5 Wells | inhibition at 200 mg/kg (whole complement; 0.5 h, 30 min, read-out: In Vivo Activity (Guinea Pig) % Inhibition, Intraperitoneal, 30 minutes): -23% | inhibition at 200 mg/kg (whole complement; 1 h, 60 min, read-out: In Vivo Activity (Guinea Pig) % Inhibition, Intraperitoneal, 60 minutes): -57% | inhibition at 200 mg/kg (whole complement; 2 h, 120 min, read-out: In Vivo Activity (Guinea Pig) % Inhibition, Intraperitoneal, 120 minutes): -42% | C-Late 035* Wells [2]: N

NCCCCCC(=O)O [epsilon-aminocaproic acid]
use in the treatment of hereditary angioneurotic edema [1]: used with success
